According to article PMC5424463, “A strategy based on nucleotide specificity leads to a subfamily-selective and cell-active inhibitor of N ^6-methyladenosine demethylase FTO” (Chemical Science, 2014):

Experiments:
JMJD2A = molecular target: T1, JMJD2A (Homo sapiens, UniProt O75164); experiment: MALDI-based inhibition assay for JMJD2A; format: biochemical; conditions: ARK(me3)STGGK substrate
T1 construct: pNIC28-Bsa4 JMJD2A (encompassing residues 1-359); inferred from Ni-NTA purification and the pNIC28-Bsa4 vector; made in house; host or cells: E. coli BL21 (DE3) Rosetta T1R
T1 sequence (O75164 1-359): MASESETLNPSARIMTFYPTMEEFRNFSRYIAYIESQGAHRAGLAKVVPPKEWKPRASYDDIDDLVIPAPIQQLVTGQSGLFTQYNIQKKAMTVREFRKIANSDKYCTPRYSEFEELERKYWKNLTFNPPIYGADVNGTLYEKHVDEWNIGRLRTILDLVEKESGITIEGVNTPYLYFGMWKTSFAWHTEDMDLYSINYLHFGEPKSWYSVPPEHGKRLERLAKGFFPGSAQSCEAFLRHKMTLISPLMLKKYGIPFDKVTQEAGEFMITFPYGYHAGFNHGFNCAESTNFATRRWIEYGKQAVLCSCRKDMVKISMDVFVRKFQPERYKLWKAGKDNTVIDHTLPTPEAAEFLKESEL
Description: min, before 1:1 quenching with methanol. 1 uL of the diluted assay mixture was then mixed with 1 uL of α-cyano-4-hydroxycinnamic acid (CHCA, the MALDI-TOF-MS matrix, Sigma-Aldrich) and spotted onto the MALDI-TOF-MS plate before analysis. The CHCA matrix consisted of 10 mg/mL CHCA in 50% MeCN/Milli-Q H2O containing 0.1% TFA. The percentage inhibition was estimated based on the relative intensities of the unhydroxylated substrate and the hydroxylated product observed in the mass spectra. For IC50 determination, eight different concentrations of inhibitors were used (0, 1, 3, 10, 30, 100, 300, 1000 µM); the IC50s were then calculated from the variation in percentage hydroxylation at different inhibitor concentrations, using nonlinear regression, with normalized dose-response fit on […]
MALDI-based inhibition assay for JMJD2A
The assay was performed as previously reported, with modifications.[20] A peptide substrate with the sequence ARK(me3)STGGK (GL Biochem (Shanghai) Ltd) was used in this inhibition assay. The assay was performed in triplicate for each inhibitor, in a final reaction volume of 25 µL. […]
IC50s were then calculated from the variation in percentage demethylation at different

PHD2 = test system: PHD2; set-up: method as in PMID 16858410; conditions: known inhibitor; cited from earlier work

Row | Structure (SMILES) | IC50 (JMJD2A) [nM] | IC50 (PHD2) [nM]
1 | O=C(O)/C=C/C(=O)NNC(=O)c1cnccc1Cc1ccccc1 [Compound 12] | > 300000 | 
2 | O=C(O)/C=C/C(=O)NNC(=O)c1cccnc1 [Compound 21] |  | 82
